# Columns and labels:
# [1] = system: human dermal fibroblasts (HDF); assay: MTT cell viability assay, HDF; type: cell-based; conditions: Fibroblast, 72 h
# Protocol: The human non-small cell lung cancer (NSCLC) and Human Dermal Fibroblasts (HDF) cell lines were all obtained from the American Type Culture Collection (ATCC). The H1975 (CRL-5908™) cell line was grown in RPMI 1640 medium (ECB2000) while the A549 (CCL-185™) and HDF were grown in complete DMEM medium (ECM0095) All cultures were supplemented with 10% fetal bovine serum (FBS), 2 mM L-glutamine, 100 U/mL penicillin, and 100 µg/mL streptomycin,. All cell lines were routinely maintained in 75 cm^2 flasks in a cell incubator at 37 °C, 5% CO2, and 95% relative humidity. The cell cultures were detached by trypsinization with 0.5% trypsin in PBS containing 0.025% EDTA. All cell culture reagents were supplied by Euroclone (Milan, Italy).
# The number of metabolically active cells, and thus cell viability, was assessed by a 3-(4,5-dimethylthiazol-2-yl)-2,5-diphenyltetrazolium bromide (MTT) assay as previously described. The NSCLC cell lines (A549 and H1975) and HDF were seeded in 96-well plates to reach 50% confluence at 24 h; then, the medium was removed and replaced with 0.2 mL of fresh culture medium containing increasing compound concentrations (0–160 µM). After 72 h, the medium from each well was removed and replaced with fresh medium supplemented with MTT at a final concentration of 200 µg/mL. After incubation for 4 h at 37 °C, 0.2 mL of DMSO was added to each well followed by multiwell shaking for 4 min. The absorbance was read on a multiwell scanning microplate reader (BioTek Synergy HT MicroPlate Reader Spectrophotometer, BioTek Instruments Inc., Winooski, VT, USA) at 570 nm using the extraction buffer as a blank. The optical density in the control group (untreated cells) was considered as 100% viability. The relative cell viability (%) was calculated as (OD570 of treated samples/OD570 of untreated samples) × 100. Dose-dependent curves were therefore generated for the cytotoxic studies. The 50% inhibiting concentration (IC50) was determined by non-linear regression analysis with a three-parameter fit by utilizing SigmaPlot 12.0 Software, USA, Systat Software, Inc. SigmaPlot for Windows. Each experiment was performed at least five times in triplicate.
# [2] = Annexin V-FITC/PI apoptosis flow cytometry, HDF; type: cell-based, human; conditions: human, HDF cells, HDF, 24 h, read-out: live/viable (Annexin V−PI−) cells
# Protocol: (§1) Apoptosis was analyzed by flow cytometry using an Annexin V-FITC apoptosis detection kit (Biolegend, San Diego, CA, USA), according to the manufacturer’s instructions. A549, H1975, and HDF cells were treated with […] concentrations of APF-1 (1.5 and 3 µM). […] Briefly, control and treated cells were trypsinized, washed twice with ice-cold PBS, and resuspended in 1X Annexin binding buffer at a final concentration of 1.0 × 10^6 cell/mL. A total of 5 µL Annexin V-FITC and 10 µL Propidium Iodide (PI) were added to the cell suspension and the mixture was incubated for 15 min at rt in the dark. Samples were analyzed using the Guava EasyCyte flow cytometer (Merk-Millipore, Louis Missouri, USA). A total of 5000 events were acquired for each sample. Annexin V-FITC was detected as a green fluorescence (λex = 488 nm; λem = 516 nm) and PI was detected as a red fluorescence (λex = 535 nm; λem = 617 nm). Early apoptosis is defined by Annexin V+/PI− staining, late apoptosis is defined by Annexin V+/PI+ staining, and necrosis is defined by Annexin V−/PI+ staining.
# HDF cells = assay: Annexin V-FITC/PI apoptosis flow cytometry, HDF; type: cell-based, human
# Protocol: as §1
# [3] = system: p21^waf1/cip1 protein level in A549 cells; assay: Western blot of p21 expression, A549; type: cell-based, human; conditions: A549, higher APF-1 concentration (3 µM), 24 h
# Protocol: Analysis of cell extracts (20 µg total proteins) was performed using SDS-PAGE 12% (Bio-Rad Laboratories, Hercules, CA, USA). Electrophoresis was carried out under reducing conditions, where uniformly negatively charged proteins move according to their mass. The proteins were then transferred to a PVDF membrane using the Trans-Blot Turbo instrument (Bio-Rad Laboratories, USA), after which the membrane was blocked with Every Blot Blocking Buffer (Bio-Rad Laboratories, USA). P21 protein levels were analyzed by Western blotting using a specific rabbit monoclonal primary antibody that specifically recognizes p21 protein (ab109199, Cambridge, MA, USA), and a secondary antibody anti-rabbit HRP (TA130023, OriGene Technologies, Rockville, MD 20850, USA) and detected by chemiluminescence using the Chemidoc device (Bio-Rad Laboratories, USA). […] GADPH protein levels were analyzed by Western blotting using a specific rabbit monoclonal primary antibody that specifically recognizes this protein (ARC0205, catalog number MA535235, Thermo Scientific, Waltham, MA, USA) and secondary antibody anti-rabbit HRP (TA130023, OriGene Technologies, Rockville, MD 20850, USA), also in this case detected by chemiluminescence with the Chemidoc instrument (Bio-Rad Laboratories, USA).
compound,measurement,setting,value
Nc1ccc(Oc2ccc3oc(-c4cccc(Oc5ccccc5)c4)cc(=O)c3c2)cc1 [APF-1],IC50,[1],62 ± 6 µM
same,"viability at 24 h, 1.5 µM",[2]; 1.5 µM,92%
same,"viability at 24 h, 3 µM",[2]; 3 µM,86%
same,effect on the number of late apoptotic cells,"HDF cells; HDF, 1.5 and 3 µM, 24 h",did not detect any effect
same,increase in early apoptosis,"HDF cells; HDF, highest APF-1 concentration (3 µM), 24 h",4.7 fold
same,induction of apoptosis (sum of early and late apoptosis) compared with cancer cells,"HDF cells; fibroblasts, Figure 3D",lower
same,increase in p21^waf1/cip1 expression with respect to untreated cells,[3],1.5 fold
